One block for each molecule: values may come before it. Where a SMILES comes first, the peptide text is derived from it. The star is where a group is joined. Cbz = O=C(OCc1ccccc1)*
Tests used:
GFP-SZ17 [GFP: P42212] = test: cell-based or functional assay
CAR-SZ17 fusion = test: Degradation of CAR-SZ17 fusion in Jurkat cells; format: cell-based; settings: degron directly fused to the CAR
Procedure: The ability of the STUD to degrade a CAR in Jurkat cells was tested by generating a CAR construct with SynZIP17 fused to its C-terminus. However, while these STUDs worked to some extent, none of them were able to completely knockdown CAR expression (see FIG. 8).

proteasome = test: MG132 proteasome inhibitor treatment of primary human CD4+ T cells expressing GFP nanobody STUD; format: cell-based; settings: 5 uM MG132, three hours; cells expressing functional nanobody STUD (nanobody(K->R)+Bonger) only
Procedure: The mechanism of how the STUD reduces GFP was explored. Primary human CD4+ T cells expressing the GFP nanobody STUD were fed with the MG132 proteasome inhibitor and the change in fluorescence was measured over time. Cells expressing a functional STUD should display an increase in fluorescence over time as the proteasome inhibitor took effect.
Using proteasome inhibitor to explore cytosolic GFP mechanism: To ascertain the mechanism by which the STUD degrades cytosolic GFP, the cells were inoculated with 5 uM of the proteasome inhibitor MG132 for 1 and 3 hours. Cells were then washed with PBS and analyzed by flow cytometry. Using the same 2-plasmid system as described above, changes in GFP fluorescence relative to controls were measured.

[1] = test system: proteasomal and lysosomal degradation pathways; test: Inhibitor assays: rescue of GFP fluorescence in Jurkat T cells expressing STUD and GFP target; format: cell-based; settings: 5 μM MG-132, 1 μM MLN4924 or 100 nM Bafilomycin A1; 37 C for 5 hours; cells expressing functional STUD and GFP target
Procedure: 72 hours after removal of lentivirus, the Jurkat T cells and an untransduced control cell line were treated with either 5 μM of the proteasomal inhibitor MG-132, 1 μM of the cullin ring ligase inhibitor MLN4924, 100 nM of the lysosomal inhibitor Bafilomycin A1, or DMSO vehicle control and incubate at 37 C for 5 hours. Using flow cytometry to measure GFP fluorescence following treatment, it was observed that GFP fluorescence can indeed be rescued with MG-132 and MLN4924 when cells express both a functional STUD and a GFP target relative to DMSO vehicle control.
Inhibitor Assays: 100,000 cells were plated in a 96 well round bottom plate with either 5 μM MG-132 (Sigma-Aldrich #M7449-200UL), 1 μM MLN4924 (Active Biochem #A-1139), 100 nM Bafilomycin A1 (Enzo Life Sciences #BML-CM110-0100), or DMSO vehicle control and incubated at 37 C for 5 hours. After incubation, cells were pelleted by centrifugation at 400×g for 4 minutes. Supernatant was then removed and cells were washed once with 200 μL PBS. Cells were pelleted again (400×g for 4 minutes) and resuspended in flow buffer (PBS+2% FBS) for assay by flow cytometry.

NALM6 target cells = test: MLN dose response: ON switch CAR, lysis of NALM6 target cells by CD8+ primary human T cells; format: cell-based; settings: MLN4924 1 μM to 0.015625 μM; 72 hours at 37 C; antiCD19BBz CAR fused to SynZip plus memSTUD
Procedure: CD8+ primary human T cells were engineered with an antiCD19BBz CAR fused to a SynZip and a memSTUD that binds the SynZip using the same plasmids outlined in FIG. 14A by lentiviral transduction. As a control, CD8+ primary human T cells were lentivirally transduced with an antiCD19BBz and a SynZip memSTUD which cannot bind the CAR. These engineered cells and an untransduced control were cocultured with NALM6 target cells for 72 hours at 37 C in the presence of MLN4924 ranging from 1 μM to 0.015625 μM and a DMSO vehicle control. After coculture, target cell lysis was assayed by flow cytometry. Specific target cell lysis of each cell line relative to NALM6 cells cultured alone in the same conditions was then calculated.
Co-culture assays: For all assays, T cells and target cells were co-cultured at a 1:1 ratio with cell numbers varying per assay. All assays contained between 10,000 and 50,000 of each cell type. The Countess II Cell Counter (ThermoFisher) was used to determine cell counts for all assays set up. T cells and target cells were mixed in 96-well round bottom tissue culture plates in 200 μL T cell media, and then plates were centrifuged for 1 min at 400×g to initiate interaction of the cells prior to incubation at 37 C.
MLN dose response: 25,000 CD8+ primary human T cells were seeded into 96 well round bottom plates in 100 μL fresh media. […]

cullin ring ligase = test: MLN4924 rescue of STUD knockdown of CD19BBz CAR expression in CD8+ primary T cells; format: cell-based, human; settings: 1 μM MLN4924 for 5 hours at 37 C; CD19BBz CAR with STUD

- median normalized GFP fluorescence (flow cytometry, Jurkat T cells), fold change (GFP-SZ17 [GFP: P42212]): 42 fold
Molecule: SynZIP18(K->R)-5xGS-RRRG (designed binder)

Molecule: Arg-Arg-Arg-Gly (RRRG) [Bonger degron]
- reduction of CAR expression (CAR-SZ17 fusion): over 90%

Molecule: CC(C)C[C@@H](C=O)NC(=O)[C@H](CC(C)C)NC(=O)[C@H](CC(C)C)NC(=O)OCc1ccccc1 [MG-132] (Cbz-Leu-Leu-Leu-aldehyde)
- change in GFP fluorescence over time (proteasome): increase in GFP fluorescence
- GFP fluorescence relative to DMSO vehicle control [1]: rescued

Molecule: NS(=O)(=O)OC[C@@H]1C[C@@H](n2ccc3c(N[C@H]4CCc5ccccc54)ncnc32)C[C@@H]1O [MLN4924]
- GFP fluorescence relative to DMSO vehicle control [1]: rescued
- specific target cell lysis (NALM6 target cells): dose dependent
- CAR expression (CAR fluorescence by antibody stain) (cullin ring ligase): rescue STUD knockdown of CAR expression

Molecule: CO/C1=C\C(C)=C\[C@@H](C)[C@@H](O)[C@@H](C)C/C(C)=C/C=C/[C@H](OC)[C@@H]([C@@H](C)[C@@H](O)[C@H](C)[C@@]2(O)C[C@@H](O)[C@H](C)[C@@H](C(C)C)O2)OC1=O [Bafilomycin A1]
- GFP fluorescence relative to DMSO vehicle control [1]: No changes to GFP fluorescence

— patent US20250092419A1, “SYNTHETIC TARGETERS OF UBIQUITINATION AND DEGRADATION (STUDS) AS EFFECTORS FOR FEEDBACK CONTROL IN MAMMALIAN CELLS” (The Regents of the University of California, priority 2022, published 2025)
